Experimental data: patent US7879835B2 (Korea Research Institute of Chemical Technology, priority 2004, dated 2011)

What was measured:
[1] = tested on: osteoclast (TRAP-positive multinuclear cell) formation; assay: Inhibitory effect on osteoclast formation (TRAP staining); assay type: cell-based, mice; conditions: compared to control; for inhibition at 0.1 µM / inhibition at 0.3 µM / inhibition at 1 µM / inhibition at 3 µM: Mus musculus, Osteoclast, read-out: Osteoclast formation inhibitory effects (%); for inhibition at 0.1 µM: 0.1 μM (Table 4b); for inhibition at 0.3 µM: 0.3 μM (Table 4b); for inhibition at 1 µM: 1 μM (Table 4b); for inhibition at 3 µM: 3 μM (Table 4b); for Osteoclast formation inhibitory effects (%): 8 days culture with M-CSF and RANKL
Description: The inhibitory activities of the alpha-arylmethoxyacrylate derivatives prepared in the above Examples on the proliferation of osteoclasts were examined as follows.
First, a bone marrow sample containing osteoclast pregenitor cells was isolated as follows. After sacrificing 7 to 9 week-old female mice by cervical dislocation, femur and tibia were excised aseptically while removing soft tissues attached thereto, After cutting both ends of the long bones, 1 ml of an enzyme solution containing 0.1% collagenase (Gibco), 0.05% trypsin and 0.5 mM EDTA (Gibco) was injected into the bone marrow cavity at one end using a syringe with a 26-gauge needle, and the bone marrow was then collected. After stirring the recovered bone marrow for 30 min, the precipitated bone marrow cells were collected, and cultured in α-minimum essential medium (α-MEM) supplemented with 10% FBS for 24 hrs. Then, non-adherent cells, which are osteoclast pregenitors, were aliquoted onto a culture plate at a density of 2×10^5 cells per well, and cultured for 8 days in α-MEM supplemented with 20 ng/ml of macrophage-colony stimulating factor (M-CSF, Peprotech, USA), 30 ng/ml RANKL (Peprotech, USA), and 0.3, 1.0 or 3 μM of the compounds of the Examples. Control cells were cultured at the same condition except not adding the compounds of the Examples.
After cell culture for 8 days, the adherent cells were washed with PBS and fixed with citrate-acetate-formaldehyde for 5 min. The fixed cells were incubated at 37° C. for 1 hr in acetate buffer (pH 5.0) containing naphthol AS-BI phosphate, fast Garnet GBC solution and 7 mM tartrate buffer (pH 5.0) to conduct TRAP (tartrate-resistant acid phosphatase) staining.

osteoclasts = assay: Inhibitory effect on resorption activity of osteoclast (resorption pit area on calcium phosphate-coated plate); assay type: cell-based, mice; conditions: compared to control
Description: After finishing culture, the plate was washed with distilled water, and 50 μl/well of 5% sodium hypochlorite was added to the plate. The plate was let alone for 5 min, washed again with distilled water to remove the adherent cells, and dried at room temperature. Then, the area of formed resorption pits was calculated by means of Image Pro Plus software (Media Cybernetics Ver. 3.0).

Row | Compound | inhibition at 0.1 µM [1] | inhibition at 0.3 µM [1] | inhibition at 1 µM [1] | inhibition at 3 µM [1] | Reduction (%) of the resorption pit area of osteoclasts (osteoclasts; 0.3 uM) | Reduction (%) of the resorption pit area of osteoclasts (osteoclasts; 1 uM) | Reduction (%) of the resorption pit area of osteoclasts (osteoclasts; 3 uM) | Osteoclast formation inhibitory effects (%) ([1]; 0.3 μM) | Osteoclast formation inhibitory effects (%) ([1]; 1.0 μM) | Osteoclast formation inhibitory effects (%) ([1]; 3.0 μM)
1 | CO/C=C(/C(=O)OC)c1ccccc1COc1ccc(NCC2CC2)cc1F [compound 423] | 0% | 51% | 100% | 100% | – | – | – | – | – | –
2 | CO/C=C(/C(=O)OC)c1ccc(Cl)cc1COc1cccc(N(C)c2ccccc2)c1 [compound 390] | 2% | 94% | 99% | 100% | – | – | – | – | – | –
3 | CO/C=C(/C(=O)OC)c1ccccc1COc1ccc(NCC(C)C)cc1F [Compound No. 425, (E)-methyl-2-[2-((4-(N-isobutylamino)-2-fluorophenoxy)methyl)phenyl]-3-methoxyacrylate] | 0% | 51% | 100% | 100% | – | – | – | – | – | –
4 | CO/C=C(/C(=O)OC)c1ccccc1COc1ccc(N(C)c2ccccc2)cc1 [compound 400] | 0% | 53% | 99% | 100% | – | – | – | – | – | –
5 | CO/C=C(/C(=O)OC)c1ccccc1COc1ccc(N(C)CC2CC2)cc1F [compound 424] | 0% | 92% | 100% | 100% | – | – | – | – | – | –
6 | CO/C=C(/C(=O)OC)c1ccccc1COc1cccc(N2CCCCC2)n1 [compound 413] | – | 11% | 100% | 100% | – | – | – | – | – | –
7 | CO/C=C(/C(=O)OC)c1ccccc1COc1cccc(N2CCOCC2)n1 [compound 348] | – | 24% | 99% | 100% | – | – | – | – | – | –
8 | CO/C=C(/C(=O)OC)c1ccccc1COc1ccc(OC2CCCC2)cc1 [compound 172] | – | – | – | – | 90% | 100% | 100% | 90% | 100% | 100%
9 | CO/C=C(/C(=O)OC)c1ccccc1COc1cccc(NCCC(C)C)c1 [compound 383] | – | 6% | 94% | 100% | – | – | – | – | – | –
10 | CO/C=C(/C(=O)OC)c1ccccc1COc1ccc(NCC(C)C)cc1 [compound 361] | – | – | 95% | 100% | – | – | – | – | – | –
11 | CO/C=C(/C(=O)OC)c1ccccc1COc1ccc(N(CC2CC2)CC2CC2)cc1F [compound 422] | 11% | 98% | 100% | 100% | – | – | – | – | – | –
12 | CO/C=C(/C(=O)OC)c1ccccc1COc1cccc(N2CCCC2)c1 [compound 392] | – | 2% | 95% | 100% | – | – | – | – | – | –
13 | CCOc1ccc(OCc2ccccc2/C(=C\OC)C(=O)OC)cc1 [compound 183] | – | – | – | – | 100% | 100% | 100% | 96% | 100% | 100%
14 | CCCCCCCCc1cccc(OCc2ccccc2/C(=C\OC)C(=O)OC)c1 [compound 229] | – | – | – | – | 0.00% | 100% | 100% | 100% | 100% | 100%
15 | CO/C=C(/C(=O)OC)c1ccccc1COc1ccc(N2CCCC2)c(F)c1 [compound 418] | – | 11% | 81% | 100% | – | – | – | – | – | –
16 | CCCOc1ccc(OCc2ccccc2/C(=C\OC)C(=O)OC)cc1 [compound 192] | – | – | – | – | 100% | 100% | 100% | 68% | 100% | 100%

Row | Compound | inhibition at 0.1 µM [1] | inhibition at 0.3 µM [1] | inhibition at 1 µM [1] | inhibition at 3 µM [1] | Reduction (%) of the resorption pit area of osteoclasts (osteoclasts; 0.3 uM) | Reduction (%) of the resorption pit area of osteoclasts (osteoclasts; 1 uM) | Reduction (%) of the resorption pit area of osteoclasts (osteoclasts; 3 uM) | Osteoclast formation inhibitory effects (%) ([1]; 0.3 μM) | Osteoclast formation inhibitory effects (%) ([1]; 1.0 μM) | Osteoclast formation inhibitory effects (%) ([1]; 3.0 μM)
17 | CCC(C)Oc1ccc(OCc2cc(F)ccc2/C(=C\OC)C(=O)OC)cc1 (stereo not shown) [compound 319] | – | – | – | – | 0% | 100% | 100% | 82% | 100% | 100%
18 | CO/C=C(/C(=O)OC)c1ccccc1COc1ccc(N2CCCC2)cn1 [compound 397] | – | 22% | 100% | 100% | – | – | – | – | – | –
19 | C=CCNc1cccc(OCc2ccccc2/C(=C\OC)C(=O)OC)c1 [compound 381] | – | 5% | 67% | 100% | – | – | – | – | – | –
20 | CO/C=C(/C(=O)OC)c1ccccc1COc1ccc(C(C)F)cc1 (stereo not shown) [compound 170] | – | – | – | – | 0% | 100% | 100% | 81% | 100% | 100%
21 | C=CCN(CC=C)c1ccc(OCc2ccccc2/C(=C\OC)C(=O)OC)c(F)c1 [compound 421] | – | 14% | 100% | 100% | – | – | – | – | – | –
22 | CO/C=C(/C(=O)OC)c1ccccc1COc1cccc(NC2CCCC2)c1 [compound 380] | – | 8% | 51% | 100% | – | – | – | – | – | –
23 | C=CCN(CC=C)c1ccc(OCc2ccccc2/C(=C\OC)C(=O)OC)cc1F [compound 367] | – | – | 87% | 100% | – | – | – | – | – | –
24 | CCCCCCCOc1cccc(OCc2ccccc2/C(=C\OC)C(=O)OC)c1 [compound 201] | – | – | – | – | 100% | 100% | 100% | 12% | 70% | 100%
25 | CO/C=C(/C(=O)OC)c1ccccc1COc1cccc(N2CCN(C(=O)OC(C)(C)C)CC2)c1 [compound 406] | 41% | 100% | 100% | 100% | – | – | – | – | – | –
26 | CO/C=C(/C(=O)OC)c1ccc(Cl)cc1COc1cccc(N2CCCCC2)c1 [compound 387] | 1% | 100% | 100% | 100% | – | – | – | – | – | –
27 | CO/C=C(/C(=O)OC)c1ccccc1COc1cccc(N2CCOCC2)c1 [compound 349] | 2% | 53% | 100% | 100% | – | – | – | – | – | –
28 | CO/C=C(/C(=O)OC)c1ccccc1COc1ccc(N(C)c2ccccc2)c(F)c1 [compound 417] | – | 24% | 97% | 100% | – | – | – | – | – | –
29 | CO/C=C(/C(=O)OC)c1ccccc1COc1ccc(NCC2CC2)c(F)c1 [compound 372] | – | – | 91% | 100% | – | – | – | – | – | –
30 | CO/C=C(/C(=O)OC)c1ccccc1COc1cccc(N(C)c2ccccc2)n1 [compound 414] | – | 32% | 100% | 100% | – | – | – | – | – | –
31 | CO/C=C(/C(=O)OC)c1ccccc1COc1ccc(N2CCOCC2)cc1F [compound 408] | 0% | 52% | 100% | 100% | – | – | – | – | – | –
